In patent US4357344A, “Polybutylbenzylphenols and benzyl-3,4-methylenedioxybenzenes in insect population control” (The United States of America as represented by the …, priority 1979, dated 1982):

Columns and labels:
flies (family Muscidae) [1] = assay: Oviposition inhibition tests (treated fly food; Examples 6-9); assay type: in vivo
Summary of the method: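 Compound mixed via acetone into sugar/dry milk/egg yolk fly food, solvent evaporated. Cages of 100 newly-emerged adults fed treated diet 6-7 days, then given moist CSMA larva-rearing medium for 4-6 h; cups examined for eggs.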

flies (family Muscidae) [2] = assay: Chemosterilancy tests (egg hatch and pupal development; Examples 6-9); assay type: in vivo
Summary of the method: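 Compound fed to flies in sugar/milk powder/egg yolk diet, applied in acetone that was then evaporated. 100 laid eggs per cup transferred onto larval rearing medium. Scored as percentage egg hatch and pupal development.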

[3] = system: early fourth-stage larvae of the common malaria mosquito (Anopheles quadrimaculatus); assay: Growth-inhibition tests on mosquito larvae; assay type: in vivo; details: in water; corrected by Abbott's formula
Summary of the method: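 Fifty early fourth-instar larvae held in 1 L treated water with daily feeding; pupae moved to emergence cages. Dead larvae, pupae and dead, malformed or non-eclosing adults summed, Abbott-corrected as growth inhibition; GI-90 is ppm concentration inhibiting 90% of larvae.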

screwworm flies = assay: Anti-procreant tests on screw-worm fly; assay type: in vivo
Procedure: These tests were conducted on mass-reared screwworm flies which had been obtained as pupae from the screwworm fly plant at Mission, Texas. The flies were held in cages with water and undiluted corn syrup in a colony room maintained at about 27° C. and 60% relative humidity (RH) with a 12-hour photoperiod beginning at 6 a.m. Adults that emerged were lightly anesthetized with CO2 for ease of manipulation the same day.
The mixtures obtained were fed to the flies in "Dixie" paper cups, 7 cm diameter, and rice hulls were placed on the surface of the food to prevent the flies from getting stuck in the viscous mixture.
Initially, varying concentrations of a chemosterilant were fed to the flies for the first 5 days of life. Thereafter, the chemosterilant was replaced with pure corn syrup. On the 7th day, 3 replicates of 10 flies were stimulated to oviposit and the flies which oviposited were checked for insemination by an examination of the spermathecae for live sperms. The total number of eggs per fly was estimated and the hatchability of these eggs (fertility) was determined 24 hours later (at 37° C.). Observations were made to determine percentage of egg hatch.

[4] = system: Salmonella tester strains TA-100, TA-98, TA-1537; assay: Ames' Salmonella/microsome mutagenicity procedure
Procedure: The mutagenic activity of D, A, B, M, N, and CC were tested by the standard Ames' Salmonella/microsome procedure, which is reported to show better than 90% correlation with development of mammalian cancers (Ames et al., Mutation Research, Vol. 31, p. 347, 1975; McCann et al., Proc. Nat. Acad. Sci., Vol. 72, p. 5135, 1975). Tester strains TA-100, TA-98, TA-1537 and the plate test method were used, employing concentrations of 10, 100, 1000, and 10,000 […]. The metabolic activation mixture (S-9 mix) used the 9000 times g supernatant of Arochlor-1254-induced rat liver homogenate at a level of 100 μl per ml of S-9 mix.

Oral toxicity in mice = details: mouse, in vivo; oral, mice; read-out: Estimated LD50
Procedure: (§1) Compounds D, A, and B were also assayed for oral toxicity in mice.

mice = assay: Oral toxicity in mice; details: mouse, in vivo, po
Procedure: as §1

Solubility in water = assay type: physicochemical
[5] = system: male flies (family Muscidae); assay: Sterilization of treated males crossed with virgin untreated females; assay type: in vivo; details: 1.0% in food
Procedure: The compound to be tested was administered in a standard fly food containing 6 parts of sugar, 6 parts of powdered non-fat dry milk, and 1 part of powdered egg yolk. Treated food was prepared by mixing an appropriate amount of a solution or suspension of CBCP in acetone with a batch of the food. The acetone was evaporated (4-6 hours) and the dry material was repulverized.
These flies were maintained on untreated fly food. After 5 days, cups containing the larval-rearing medium was provided as previously described and a 100-egg sample was collected and place on moist larve-rearing medium. About a week after oviposition, examination was made to determine the percentage of hatched eggs and of pupae developed.

| Structure (SMILES) | Mortality, parent generation (flies (family Muscidae) [1]; 0.05% in food) | Mortality, parent generation (flies (family Muscidae) [1]; 0.1% in food) | Mortality, parent generation (flies (family Muscidae) [1]; 0.25% in food) | Egg hatch (flies (family Muscidae) [2]; 0.05% in food) | Pupal development (flies (family Muscidae) [2]; 0.05% in food) | Egg hatch (flies (family Muscidae) [2]; 0.1% in food) | Pupal development (flies (family Muscidae) [2]; 0.1% in food) | Egg hatch (flies (family Muscidae) [2]; 0.25% in food) | Pupal development (flies (family Muscidae) [2]; 0.25% in food) | Inhibition of embryogenesis (screwworm flies; 0.01% in food) | Oviposition (screwworm flies; 0.01% in food) | Survival, Female (screwworm flies; 0.01% in food) | Survival, Male (screwworm flies; 0.01% in food) | Inhibition of embryogenesis (screwworm flies; 0.10% in food) | Oviposition (screwworm flies; 0.10% in food) | Survival, Female (screwworm flies; 0.10% in food) | Survival, Male (screwworm flies; 0.10% in food) | LD50 (Oral toxicity in mice) | oral toxicity (in words) (mice) | solubility in water (Solubility in water) | also measured |
| --- | --- | --- | --- | --- | --- | --- | --- | --- | --- | --- | --- | --- | --- | --- | --- | --- | --- | --- | --- | --- | --- |
| CC(c1ccccc1)c1cc(C(C)(C)C)cc(C(C)(C)C)c1O (stereo not drawn) [A, 4,6-Di-t-butyl-2-α-methylbenzylphenol] | 0% | 0% | 0% | 0% | 0% | 0% | 0% | 0% | 0% | 100% | 63.3% | 71.3% | 54.0% | 100% | 90.0% | 68.0% | 47.0% | 2510 mg/kg | only slightly toxic | low solubility in water | Mortality, parent generation (flies (family Muscidae) [1]; 0.01% in food): 0%; Mortality, parent generation (flies (family Muscidae) [1]; 0.025% in food): 0%; Egg hatch (flies (family Muscidae) [2]; 0.01% in food): 39%; Pupal development (flies (family Muscidae) [2]; 0.01% in food): 39%; Egg hatch (flies (family Muscidae) [2]; 0.025% in food): 28%; Pupal development (flies (family Muscidae) [2]; 0.025% in food): 28%; GI-90 (concentration of growth inhibitor that would prevent and/or retard growth in 90% of the treated larvae) [3]: 0.039 ppm; mutagenic activity ([4]; TA-100, TA-98, TA-1537, without or with metabolic activation): non-mutagenic |
| CC(C)(C)c1cc(Cc2ccccc2)c(O)c(C(C)(C)C)c1 [D, 2,4-Di-t-butyl-6-benzylphenol] | 0% | 0% | 0% | 90% | 90% | 0% | 0% | 0% | 0% | 95.2% | 66.7% | 49.3% | 46.0% | 100% | 95.0% | 88.7% | 55.0% | 3430 mg/kg | only slightly toxic | low solubility in water | Mortality, parent generation (flies (family Muscidae) [1]; 0.5% in food): 0%; Mortality, parent generation (flies (family Muscidae) [1]; 1.0% in food): 0%; Egg hatch (flies (family Muscidae) [2]; 0.5% in food): 0%; Pupal development (flies (family Muscidae) [2]; 0.5% in food): 0%; Egg hatch (flies (family Muscidae) [2]; 1.0% in food): 0%; Pupal development (flies (family Muscidae) [2]; 1.0% in food): 0%; sterilization of males [5]: 100%; revertant frequencies ([4]; 10-10,000 μg/plate in TA-100 and S-9): exceeded the mean control value plus two or three standard deviations; mutagenic response relative to known mutagenic agents which revert this strain ([4]; TA-100 and S-9): extremely weak |
